Assay results published in patent publication US9273043B2, “TRPV1 antagonists including dihydroxy substituent and uses thereof” (Purdue Pharma L.P., priority 2011, dated 2016).
Values after ≈ are worked out from the molar mass of the structure shown. Read-outs that look alike come from different tables or passages of the source. Marks after values point to notes of the source that are not given here.

What was measured:
[1] = In vivo assay of body temperature increase (rectal body temperature); parameters: species or system rat; conditions: rats, oral, 10 mL/kg of 1 mg/mL in 0.5% methylcellulose; greatest ΔTb versus vehicle control at 0.5, 1 or 2 hrs
From the text: Hyperthermia or undesirable elevation in animal body temperature is known to be an undesirable side-effect accompanying the administration of certain TRPV1 antagonists (Gavva, “Body-temperature maintenance as the predominant function of the vanilloid receptor TRPV1,” Trends Pharmacol. Sci. 29(11):550-557 (2008)).
Test Animals: Selection of rats (Crl/SD rats, 7 weeks, male) was based on rectal body temperature measured during the morning of the day of dosing as described below. In addition, to minimize spontaneous, stress-induced increases in body temperature, rats were acclimated in advance to both the rectal measurement procedure and to being handled and dosed. All lodging and testing took place in animal care laboratories with constant room temperature and humidity. The rats were free to move and ingest food and water throughout. Each rat was coded with a colored line on the tail, housed in a separate cage, and permitted the normal range of movement. Immediately before each body temperature measurement, a rat was transferred to a measurement cage. To reduce stress which could influence its body temperature, each rat was covered with towels during the measurement. A thermistor probe was then carefully inserted into the rectum of each rat and left in place until the temperature reading on the digital display had stabilized; this value was recorded.
Assay: On the day before dosing, rectal body temperature was measured at 9:00, 10:00, 11:00, 12:30, 13:30, 14:30, and 15:30 o'clock to familiarize the rats with the measurement procedure prior to administration of the test or control treatments. The rats were also dosed by oral gavage without vehicle at 12:30 o'clock to acclimate and familiarize them with the handling and dosing procedure.
On the day of dosing, only rats with rectal body temperatures within the range of from 37.0° C. to 37.7° C. were selected for study. Rectal body temperatures were measured at 9:00, 10:00, and 11:00 o'clock. Rats were excluded from the study if either their rectal body temperature was over 37.9° C. at 10:00 o'clock or was outside the range of from 37.0° C. to 37.7° C. at 11:00 o'clock. The selected rats were divided into several groups based on their rectal body temperatures at 11:00 o'clock. Rectal body temperatures of the selected rats were measured again at 12:30 o'clock and any rat with a rectal body temperature of 38.0° C. or greater was also excluded from the study.
Following assignment to either a test or control group, a test compound or a control was administered to the rats. Each test compound was dissolved in a vehicle of 0.5% aqueous methylcellulose solution and the final concentration of the test compound was adjusted to 1 mg/mL. Each test compound was orally administered once at a dose of 10 mL/kg. The same volume of the control (vehicle only) was administered once to the control group. Rectal body temperatures were measured at the following time points: 0.5, 1, and 2 hrs after administration.
The body temperature increase (ΔTb) for each test compound was calculated by subtracting, at each time point, the average temperature of the control group from the average temperature of the group administered that test compound. The greatest ΔTb obtained for each test compound at any of the time points is shown in Table 11 below, along with the ΔTb of the control.

[2] = Aqueous solubility at pH 1.2 and pH 6.8; format: physicochemical; conditions: aqueous solution
[3] = system: FCA-induced inflammation of the rat hind paw; assay: Freund's complete adjuvant (FCA) model of inflammatory pain, paw withdrawal threshold; format: in vivo; conditions: rat FCA, 20 mg/kg
Protocol: Test Animals: Each experiment uses rats weighing between 200-260 g at the start of the experiment. The rats are group-housed and have free access to food and water at all times, except prior to oral administration of a Compound of Formula (I) when food is removed for 16 hours before dosing. A control group acts as a comparison to rats treated with a Compound of Formula (I). The control group is administered the vehicle for the Compound of Formula (I). The volume of vehicle administered to the control group is the same as the volume of carrier and Compound of Formula (I) administered to the test group.
Inflammatory Pain: To assess the actions of a Compound of Formula (I) for the treatment or prevention of inflammatory pain, the Freund's complete adjuvant (“FCA”) model of inflammatory pain was used. FCA-induced inflammation of the rat hind paw is associated with the development of persistent inflammatory mechanical hyperalgesia and provides reliable prediction of the anti-hyperalgesic action of clinically useful analgesic drugs (Bartho et al., “Involvement of capsaicin-sensitive neurons in hyperalgesia and enhanced opioid antinociception in inflammation,” Naunyn-Schmiedeberg's Archives of Pharmacol. 342:666-670 (1990)). The right hind paw of each male, 6-week old Jcl:SD rat was administered a 50 μL intraplantar injection of 50% FCA (Sigma-Aldrich). 24 hour post-injection, the animal was assessed for response to noxious mechanical stimuli by determining the PWT, as described below. Rats were then administered a single injection of 0.1, 0.3, 1, 3, or 10 mg/kg of either the product prepared with Compound A155(a) and fumaric acid as described in Example 10, 20 mg/kg of an ibuprofen control (EMD Millipore Chemicals, Inc.), or vehicle as a control (0.5% weight/volume methylcellulose (400cP, Wako Pure Chemical Industries, Ltd., Osaka, Japan)/aqueous solution). […] Responses to noxious mechanical stimuli were then determined 1, 3, 5, and 7 hours post-administration. Percentage reversal of hyperalgesia for each animal was defined as: […]
With the exception of the controls (i.e., ibuprofen, vehicle) where the student's t-test was used, Dunnett's test was conducted for the % reversal. In either instance, values with p<0.05 were considered to be statistically significant. The % reversal results for administration of the product prepared with Compound A155(a) and fumaric acid as described in Example 10 and the respective controls are presented in Table 7.
Response to Mechanical Stimuli as an Assessment of Mechanical Hyperalgesia: The paw pressure assay was used to assess mechanical hyperalgesia. For this assay, hind paw withdrawal thresholds (PWT) to a noxious mechanical stimulus were determined using an analgesymeter (Model 37215, commercially available from Ugo Basile of Italy) as described in Stein, “Unilateral Inflammation of the Hindpaw in Rats as a Model of Prolonged Noxious Stimulation: Alterations in Behavior and Nociceptive Thresholds,” Pharmacol. Biochem. and Behavior 31:451-455 (1988). The maximum weight that could be applied to the hind paw was set at 250 g and the end point was taken as complete withdrawal of the paw. PWT was determined once for each rat at each time point and either only the affected (ipsilateral) paw was tested, or both the ipsilateral and contralateral (non-injured) paw were tested.

[4] = pH 1.2, read-out: aqueous solubility at pH 1.2
[5] = pH 6.8, read-out: aqueous solubility at pH 6.8

With C[C@H]1CN(c2ncc([C@H](O)CO)cc2Cl)CCN1C(=O)Nc1nc2ccc(F)cc2s1 [AA] the “ΔTb, body temperature increase” value [1] was 0.8 °C.

For C[C@H]1CN(c2ncc([C@H](O)CO)cc2F)CCN1C(=O)Nc1nc2ccc(Cl)cc2s1 [AB], the “ΔTb, body temperature increase” value [1] was 0.6 °C.

With C[C@H]1CN(c2ncc([C@H](O)CO)cc2F)CCN1C(=O)Nc1nc2ccc(F)cc2s1 [AC] the “ΔTb, body temperature increase” value [1] was 0.7 °C.

In the case of C[C@H]1CN(C(=O)Nc2nc3ccc(F)cc3s2)CCN1c1ncc([C@H](O)CO)cc1F [AD], the “ΔTb, body temperature increase” value [1] is reported as 0.6 °C.

In the case of C[C@H](O)[C@@H](O)c1cnc(N2CCN(C(=O)Nc3nc4ccc(F)cc4s3)[C@H](C)C2)c(Cl)c1 [BA], the “ΔTb, body temperature increase” value [1] is reported as 0.9 °C.

For C[C@H](O)[C@@H](O)c1cnc(N2CCN(C(=O)Nc3nc4ccc(F)cc4s3)[C@H](C)C2)c(F)c1 [BC], the “ΔTb, body temperature increase” value [1] was 0.7 °C.

For O=C(Nc1ccc(C(F)(F)F)cc1)N1CC=C(c2ncccc2Cl)CC1 [Compound 200], the solubility [2, 4] was < 0.1 µM.

In the case of O=C(Nc1ccc(C(F)(F)F)cc1)N1CCC(F)(c2ncccc2Cl)CC1 [Compound 203], the “aqueous solubility at pH 6.8” value ([2]; pH 6.8) is reported as “insoluble”.

For O=C(Nc1ccc(C(F)(F)F)cc1)N1CCC(F)(c2ncccc2F)CC1 [Compound 207], the “aqueous solubility at pH 6.8” value ([2]; pH 6.8) was “insoluble”.

In the case of O=C(Nc1ccc(C(F)(F)F)cc1)N1CC=C(c2ncccc2F)CC1 [Compound 208], the “aqueous solubility at pH 6.8” value ([2]; pH 6.8) is reported as “insoluble”.

O=C(Nc1ccc(C(F)(F)F)c(F)c1)N1CCC(F)(c2ncccc2Cl)CC1 [Compound 209] gave a solubility [2, 4] of 9.3 µM (≈ 3.9 µg/mL) and a solubility [2, 5] of 1.0 µM (≈ 0.42 µg/mL).

Compound O=C(Nc1ccc(S(=O)(=O)C(F)(F)F)cc1)N1CCC(F)(c2ncccc2Cl)CC1 [Compound 210] has a solubility [2, 4] of 2.0 µM (≈ 0.932 µg/mL) and a solubility [2, 5] of 0.4 µM (≈ 0.186 µg/mL).

For O=C(Nc1ccc(OC(F)(F)F)cc1)N1CCC(F)(c2ncccc2Cl)CC1 [Compound 211], the solubility [2, 4] was 1.3 µM (≈ 0.543 µg/mL) and the solubility [2, 5] was 0.4 µM (≈ 0.167 µg/mL).

O=C(Nc1ccc(C(F)(F)F)c(F)c1)N1CCC(F)(c2ncccc2F)CC1 [Compound 212] gave a solubility [2, 4] of 10.3 µM (≈ 4.15 µg/mL) and a solubility [2, 5] of 1.9 µM (≈ 0.766 µg/mL).

O=C(Nc1ccc(C(F)(F)F)c(F)c1)N1CC=C(c2ncccc2Cl)CC1 [Compound 213] showed a solubility [2, 4] of 39.6 µM (≈ 15.8 µg/mL) and a solubility [2, 5] of 0.8 µM (≈ 0.32 µg/mL).

In the case of O=C(Nc1ccc(OC(F)(F)F)cc1)N1CC=C(c2ncccc2Cl)CC1 [Compound 214], the solubility [2, 4] is reported as > 50 µM and the solubility [2, 5] is reported as 1.8 µM (≈ 0.716 µg/mL).

With C[C@@H]1CN(c2ncc([C@H](O)CO)cc2Cl)CCN1C(=O)Nc1nc2ccccc2s1 [DA] the “ΔTb, body temperature increase” value [1] was 0.9 °C.

For C[C@@H]1CN(c2ncc([C@H](O)CO)cc2F)CCN1C(=O)Nc1nc2ccccc2s1 [DB], the “ΔTb, body temperature increase” value [1] was 1.1 °C.

For C[C@@H]1CN(c2ncc([C@H](O)CO)cc2C(F)(F)F)CCN1C(=O)Nc1nc2ccccc2s1 [DC], the “ΔTb, body temperature increase” value [1] was 1.0 °C.

In the case of O=C(Nc1nc2ccc(F)cc2s1)N1CCN(c2ncc([C@H](O)CO)cc2Cl)CC1 [DD], the “ΔTb, body temperature increase” value [1] is reported as 1.0 °C.

In the case of C[C@@H]1CN(c2ncc([C@H](O)CO)cc2Cl)CCN1C(=O)Nc1nc2ccc(F)cc2s1 [DE], the “ΔTb, body temperature increase” value [1] is reported as 1.3 °C.

For O=C(Nc1nc2ccc(F)cc2s1)N1CCN(c2ncc([C@H](O)CO)cc2F)CC1 [DF], the “ΔTb, body temperature increase” value [1] was 0.5 °C.

For C[C@@H]1CN(c2ncc([C@H](O)CO)cc2F)CCN1C(=O)Nc1nc2ccc(F)cc2s1 [DG], the “ΔTb, body temperature increase” value [1] was 1.0 °C.

With O=C(Nc1nc2ccc(F)cc2s1)N1CCN(c2ncc([C@H](O)CO)cc2C(F)(F)F)CC1 [DH] the “ΔTb, body temperature increase” value [1] was 0.9 °C.

With C[C@@H]1CN(c2ncc([C@H](O)CO)cc2C(F)(F)F)CCN1C(=O)Nc1nc2ccc(F)cc2s1 [DI] the “ΔTb, body temperature increase” value [1] was 0.8 °C.

With Cc1ccc2nc(NC(=O)N3CCN(c4ncc([C@H](O)CO)cc4Cl)CC3)sc2c1 [DJ] the “ΔTb, body temperature increase” value [1] was 0.9 °C.

For C[C@@H]1CN(c2ncc([C@H](O)CO)cc2F)CCN1C(=O)Nc1nc2cc(F)ccc2s1 [DK], the “ΔTb, body temperature increase” value [1] was 0.7 °C.

With Cc1cc2nc(NC(=O)N3CCN(c4ncc([C@H](O)CO)cc4F)C[C@H]3C)sc2cc1C [DL] the “ΔTb, body temperature increase” value [1] was 0.9 °C.

For Cc1cc2nc(NC(=O)N3CCN(c4ncc([C@H](O)CO)cc4C)CC3)sc2cc1C [DM], the “ΔTb, body temperature increase” value [1] was 0.9 °C.

For Cc1cc([C@H](O)CO)cnc1N1CCN(C(=O)Nc2nc3ccc(Cl)cc3s2)CC1 [DN], the “ΔTb, body temperature increase” value [1] was 0.8 °C.

With COc1ccc2nc(NC(=O)N3CCN(c4ncc([C@H](O)CO)cc4F)C[C@H]3C)sc2c1 [DO] the “ΔTb, body temperature increase” value [1] was 1.1 °C.

For COc1ccc2nc(NC(=O)N3CCN(c4ncc([C@H](O)CO)cc4Cl)CC3)sc2c1 [DP], the “ΔTb, body temperature increase” value [1] was 1.2 °C.

With CC(C)Cc1ccc(C(C)C(=O)O)cc1 (stereo not shown) [Ibuprofen, ibuprofen, reference compound] the “% Reversal [mean]” value ([3]; 1 h after administration) was 28.6^†† %, the “% Reversal [mean]” value ([3]; 1 h after administration, listed as ibuprofen) was 28.6% and the “% Reversal [mean]” value ([3]; 3 h after administration) was 41.5^†† %. The “% Reversal [mean]” value ([3]; 3 h after administration, listed as ibuprofen) was 41.5%, the “% Reversal [mean]” value ([3]; 5 h after administration) was 39.2^†† % and the “% Reversal [mean]” value ([3]; 5 h after administration, listed as ibuprofen) was 39.2%. The “% Reversal [mean]” value ([3]; 7 h after administration) was 32.5^†† % and the “% Reversal [mean]” value ([3]; 7 h after administration, listed as ibuprofen) was 32.5%.
